Laboratory results taken from article doi:10.64898/2025.12.08.692997v2 (biorxiv, 2025).
Structures can show the parent of a compound that is named as a salt. Where two headings read alike, the source gives them in different places.

What was measured:
[1] = molecular target: T1, human EphB2-His ectodomain - human EphrinB2-Fc ectodomain (EphB2-EphrinB2 tetramer) (Homo sapiens, UniProt P29323+P52799); assay: biochemical; details: Octet IC50 data EB2-EphB2 (Absolute)
[2] = molecular target: T1, human EphB2-His ectodomain - human EphrinB2-Fc ectodomain (EphB2-EphrinB2 tetramer); assay: biochemical; details: Octet IC50 data EB2-EphB2 (Relative)
[3] = molecular target: T1, human EphB2-His ectodomain - human EphrinB2-Fc ectodomain (EphB2-EphrinB2 tetramer); assay: biochemical; details: EphrinB2-EphB2 IC50 (Absolute, µM)
[4] = molecular target: rat EphB1-Fc ectodomain - mouse EphrinB2-His ectodomain (EphB1-EphrinB2) (Rattus norvegicus; Mus musculus, UniProt P09759+P52800); assay: biochemical
[5] = molecular target: T1, human EphB2-His ectodomain - human EphrinB2-Fc ectodomain (EphB2-EphrinB2 tetramer); assay: biochemical; details: EphrinB2-EphB2 IC50 (Relative, µM)
[6] = molecular target: EphrinB2 of mouse pancreatic stellate cells stimulated with mouse EphB2-Fc-His (Mus musculus, UniProt P52800+P54763); assay: % pEphrinB2 by IP and immunoblot; assay type: cell-based
[7] = molecular target: T1, human EphB2-His ectodomain - human EphrinB2-Fc ectodomain (EphB2-EphrinB2 tetramer); assay: biochemical
[8] = molecular target: T1, human EphB2-His ectodomain - human EphrinB2-Fc ectodomain (EphB2-EphrinB2 tetramer); assay: biochemical; remark: listed apart in the source
[9] = molecular target: T1, human EphB2-His ectodomain - human EphrinB2-Fc ectodomain (EphB2-EphrinB2 tetramer); assay: biochemical; remark: listed apart in the source
[10] = molecular target: T1, human EphB2-His ectodomain - human EphrinB2-Fc ectodomain (EphB2-EphrinB2 tetramer); assay: biochemical; remark: listed apart in the source
[11] = molecular target: T1, human EphB2-His ectodomain - human EphrinB2-Fc ectodomain (EphB2-EphrinB2 tetramer); assay: biochemical; remark: listed apart in the source
[12] = molecular target: T1, human EphB2-His ectodomain - human EphrinB2-Fc ectodomain (EphB2-EphrinB2 tetramer); assay: biochemical; remark: listed apart in the source
[13] = molecular target: T1, human EphB2-His ectodomain - human EphrinB2-Fc ectodomain (EphB2-EphrinB2 tetramer); assay: biochemical; remark: listed apart in the source
[14] = molecular target: T1, human EphB2-His ectodomain - human EphrinB2-Fc ectodomain (EphB2-EphrinB2 tetramer); assay: biochemical; remark: listed apart in the source
[15] = molecular target: T1, human EphB2-His ectodomain - human EphrinB2-Fc ectodomain (EphB2-EphrinB2 tetramer); assay: biochemical; remark: listed apart in the source
[16] = molecular target: T1, human EphB2-His ectodomain - human EphrinB2-Fc ectodomain (EphB2-EphrinB2 tetramer); assay: biochemical; remark: listed apart in the source

T1 sequence (P52799 28-229): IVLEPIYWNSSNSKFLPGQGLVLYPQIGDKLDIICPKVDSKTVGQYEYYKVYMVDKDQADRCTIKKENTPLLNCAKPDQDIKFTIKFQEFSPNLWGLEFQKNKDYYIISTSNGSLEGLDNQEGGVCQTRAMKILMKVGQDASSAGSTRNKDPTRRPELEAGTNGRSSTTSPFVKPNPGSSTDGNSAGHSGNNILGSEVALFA
T1 sequence (P29323 19-543): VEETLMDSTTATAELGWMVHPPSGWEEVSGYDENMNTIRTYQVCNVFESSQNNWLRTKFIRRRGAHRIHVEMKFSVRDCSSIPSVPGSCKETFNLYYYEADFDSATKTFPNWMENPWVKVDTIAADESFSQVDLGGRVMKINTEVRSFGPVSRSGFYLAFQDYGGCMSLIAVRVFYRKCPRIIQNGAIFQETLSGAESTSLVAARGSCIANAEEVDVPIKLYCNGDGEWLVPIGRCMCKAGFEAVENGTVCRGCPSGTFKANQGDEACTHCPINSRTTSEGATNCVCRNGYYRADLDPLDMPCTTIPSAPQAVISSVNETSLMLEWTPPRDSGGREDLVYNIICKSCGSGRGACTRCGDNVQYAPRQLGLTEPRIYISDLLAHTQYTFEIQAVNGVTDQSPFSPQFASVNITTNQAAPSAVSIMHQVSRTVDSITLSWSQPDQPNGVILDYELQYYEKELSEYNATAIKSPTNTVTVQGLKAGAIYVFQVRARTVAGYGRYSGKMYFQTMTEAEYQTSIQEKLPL
Sequence of rat EphB1-Fc ectodomain - mouse EphrinB2-His ectodomain (EphB1-EphrinB2) (P52800 29-232): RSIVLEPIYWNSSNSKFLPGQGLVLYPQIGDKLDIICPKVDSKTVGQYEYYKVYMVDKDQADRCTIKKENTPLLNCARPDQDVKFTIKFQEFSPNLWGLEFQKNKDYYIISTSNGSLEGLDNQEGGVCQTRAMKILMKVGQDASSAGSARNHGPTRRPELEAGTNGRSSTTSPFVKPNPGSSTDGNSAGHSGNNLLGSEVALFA
Sequence of rat EphB1-Fc ectodomain - mouse EphrinB2-His ectodomain (EphB1-EphrinB2) (P09759 18-538): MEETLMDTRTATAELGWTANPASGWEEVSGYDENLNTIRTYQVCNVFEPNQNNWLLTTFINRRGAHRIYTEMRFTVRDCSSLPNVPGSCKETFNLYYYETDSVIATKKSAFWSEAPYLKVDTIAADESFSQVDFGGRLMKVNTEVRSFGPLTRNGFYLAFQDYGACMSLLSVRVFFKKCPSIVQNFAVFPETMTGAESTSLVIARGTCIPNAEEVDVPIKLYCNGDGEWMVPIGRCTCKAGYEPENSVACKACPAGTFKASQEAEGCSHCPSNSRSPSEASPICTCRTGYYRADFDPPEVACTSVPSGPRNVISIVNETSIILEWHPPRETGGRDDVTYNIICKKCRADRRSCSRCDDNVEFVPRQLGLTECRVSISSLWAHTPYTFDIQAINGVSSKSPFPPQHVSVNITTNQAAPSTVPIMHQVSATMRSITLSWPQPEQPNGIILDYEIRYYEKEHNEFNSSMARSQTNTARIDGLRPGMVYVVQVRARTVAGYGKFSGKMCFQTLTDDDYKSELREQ
Sequence of EphrinB2 of mouse pancreatic stellate cells stimulated with mouse EphB2-Fc-His (P52800 29-336): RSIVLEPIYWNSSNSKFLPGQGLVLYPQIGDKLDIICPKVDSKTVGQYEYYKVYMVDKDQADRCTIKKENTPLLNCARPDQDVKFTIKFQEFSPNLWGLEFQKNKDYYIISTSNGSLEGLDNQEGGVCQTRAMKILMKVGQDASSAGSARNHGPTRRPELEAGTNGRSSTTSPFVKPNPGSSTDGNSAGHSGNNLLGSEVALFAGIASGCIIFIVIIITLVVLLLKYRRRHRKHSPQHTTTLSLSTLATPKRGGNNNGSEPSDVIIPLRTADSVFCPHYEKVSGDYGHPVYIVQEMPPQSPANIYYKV
Sequence of EphrinB2 of mouse pancreatic stellate cells stimulated with mouse EphB2-Fc-His (P54763 19-540): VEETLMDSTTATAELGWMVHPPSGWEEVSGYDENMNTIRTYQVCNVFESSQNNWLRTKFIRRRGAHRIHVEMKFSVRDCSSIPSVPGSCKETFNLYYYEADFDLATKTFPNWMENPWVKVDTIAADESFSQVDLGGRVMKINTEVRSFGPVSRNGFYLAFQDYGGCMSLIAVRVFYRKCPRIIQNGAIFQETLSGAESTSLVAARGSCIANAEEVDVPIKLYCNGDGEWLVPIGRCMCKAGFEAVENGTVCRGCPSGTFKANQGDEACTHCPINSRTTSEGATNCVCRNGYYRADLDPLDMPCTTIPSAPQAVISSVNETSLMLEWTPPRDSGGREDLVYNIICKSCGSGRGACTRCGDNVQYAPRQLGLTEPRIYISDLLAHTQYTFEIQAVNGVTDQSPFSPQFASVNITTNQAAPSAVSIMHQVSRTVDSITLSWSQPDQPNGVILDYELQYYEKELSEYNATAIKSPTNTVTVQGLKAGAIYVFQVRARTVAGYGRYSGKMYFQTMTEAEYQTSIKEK

With `Clc1cc2c(c3ncccc13)OCN(C1CCCC1)C2` [1b, 6-chloro-3-cyclopentyl-3,4-dihydro-2H-[1,3]oxazino[5,6-h]quinoline] the IC50 [1] was 1380 nM and the IC50 [2] was 1200 nM.
`Clc1cc2c(c3ncccc13)OCN(C1CCCC1)C2` [1c, 6-chloro-3-cyclopentyl-3,4-dihydro-2H-[1,3]oxazino[5,6-h]quinoline] gave an IC50 [1] of 850 nM and an IC50 [2] of 760 nM.
For `Clc1cc2c(c3ncccc13)OCN(CC1CCCO1)C2` (centres unmarked) [4a, 6-chloro-3-((tetrahydrofuran-2-yl)methyl)-3,4-dihydro-2H-[1,3]oxazino[5,6-h]quinoline], the IC50 [1] was 810 nM and the IC50 [2] was 720 nM.
For `Oc1ccc(CN2CCOCC2)c2cccnc12` [A19, 5-(morpholinomethyl)quinolin-8-ol], the IC50 [3] was > 1.6 µM, the IC50 [4] was > 100000 nM and the IC50 [5] was > 1.6 µM.
`O=C(O)CN(CCN(CC(=O)O)CC(=O)O)CC(=O)O` [EDTA] gave an IC50 [6] of 1100 nM.
In the case of `O=S1(=O)CCN(Cc2ccc(O)c3ncccc23)CC1` [QTM . 2 HCl, 4-((8-hydroxyquinolin-1-ium-5-yl)methyl)thiomorpholin-4-ium 1,1-dioxide chloride], the IC50 [3] is reported as > 1.6 µM, the IC50 [4] is reported as > 100000 nM and the IC50 [5] is reported as 0.81 µM.
With `Cc1ccnc(NC(c2cccc([N+](=O)[O-])c2)c2ccc3cccnc3c2O)c1` (centres unmarked) [SW039339] the IC50 [7] was > 3200 nM.
For `CC(=O)Oc1ccccc1C(=O)O` [compound 1, Aspirin], the IC50 [8] was > 100000 nM.
In the case of `Clc1cc2c(c3ncccc13)OCN(Cc1cccnc1)C2` [compound 2, 6-chloro-3-(pyridin-3-ylmethyl)-3,4-dihydro-2H-[1,3]oxazino[5,6-h]quinoline], the IC50 [1] is reported as 850 nM and the IC50 [2] is reported as 740 nM.
With `CN(C(=O)Oc1cccc2cccnc12)c1ccccc1` [compound 2, 8-quinolinyl methyl(phenyl)carbamate] the IC50 [9] was > 100000 nM.
With `CC(=O)Nc1ccc(O)cc1` [compound 2, Acetaminophen] the IC50 [8] was > 100000 nM.
For `O=C(O)CN(CCOCCOCCN(CC(=O)O)CC(=O)O)CC(=O)O` [compound 2, EGTA sodium salt], the IC50 [10] was > 3200 nM and the IC50 [11] was > 3200 nM.
In the case of `CC(C)(C)N1COc2c(cc(Cl)c3cccnc23)C1` [compound 3, 3-(tert-butyl)-6-chloro-3,4-dihydro-2H-[1,3]oxazino[5,6-h]quinoline], the IC50 [1] is reported as 1950 nM and the IC50 [2] is reported as 1780 nM.
In the case of `CN(C(=O)Oc1c(Cl)cc(Cl)c2cccnc12)c1ccccc1` [compound 3, 5,7-dichloro-8-quinolinyl methyl(phenyl)carbamate], the IC50 [9] is reported as > 100000 nM.
In the case of `Oc1ccc(Cl)c2cccnc12` [compound 3, Cloxiquine], the IC50 [12] is reported as ~3200 nM and the IC50 [11] is reported as > 3200 nM.
In the case of `O=C(O)c1ccc(-n2nc(-c3ccccc3O)nc2-c2ccccc2O)cc1` [compound 3, Deferasirox], the IC50 [13] is reported as > 100000 nM.
For `CC(C)Cc1ccc(C(C)C(=O)O)cc1` (centres unmarked) [compound 3, Ibuprofen], the IC50 [8] was > 100000 nM.
With `CCN(CC)CC(=O)Nc1c(C)cccc1C` [compound 4, Lidocaine hydrochloride monohydrate] the IC50 [8] was > 100000 nM.
Work on `CC1(C)CC(N2COc3c(cc(Cl)c4cccnc34)C2)CC(C)(C)N1` [compound 5, 6-chloro-3-(2,2,6,6-tetramethylpiperidin-4-yl)-3,4-dihydro-2H-[1,3]oxazino[5,6-h]quinoline] yielded an IC50 [1] of 1740 nM and an IC50 [2] of 1150 nM.
For `CNC[C@H](O)c1cccc(O)c1` [compound 5, Phenylephrine hydrochloride], the IC50 [8] was > 100000 nM.
For `CCN(CC)C(=O)Oc1c(Cl)cc(Cl)c2cccnc12` [compound 6, 5,7-dichloro-8-quinolinyl diethylcarbamate], the IC50 [9] was > 100000 nM.
In the case of `CN(C)CCC(c1ccc(Cl)cc1)c1ccccn1` (centres unmarked) [compound 6, Chloropheniramine maleate], the IC50 [8] is reported as > 100000 nM.
For `CCN(CC)C(=O)Oc1c(Br)cc(Cl)c2cccnc12` [compound 7, 7-bromo-5-chloro-8-quinolinyl diethylcarbamate], the IC50 [9] was > 100000 nM.
`CCc1ccc(CCOc2ccc(CC3SC(=O)NC3=O)cc2)nc1` (centres unmarked) [compound 7, Pioglitazone hydrochloride] was tested, and the IC50 [8] was > 100000 nM.
Compound `CCCCN1COc2c(cc(Cl)c3cccnc23)C1` [compound 8, 3-butyl-6-chloro-3,4-dihydro-2H-[1,3]oxazino[5,6-h]quinoline] has an IC50 [1] of 1150 nM and an IC50 [2] of 1050 nM.
`CN(C)C(=O)Oc1c(Br)cc(Cl)c2cccnc12` [compound 8, 7-bromo-5-chloro-8-quinolinyl dimethylcarbamate] was tested, and the IC50 [9] was > 100000 nM.
`Cc1ncc(CO)c(CO)c1O` [compound 8, Pyridoxine hydrochloride] was tested, and the IC50 [8] was > 100000 nM.
Work on `O=C(O)[C@@H](S)[C@@H](S)C(=O)O` [compound 8, Succimer] yielded an IC50 [14] of ~50000 nM and an IC50 [15] of ~50000 nM.
For `O=C(Oc1c(I)cc(Cl)c2cccnc12)N1CCCCC1` [compound 9, 5-chloro-7-iodo-8-quinolinyl 1-piperidinecarboxylate], the IC50 [9] was > 100000 nM.
`COCCN(CCCCc1ccc2c(n1)NCCC2)CC[C@H](Nc1ncnc2ccccc12)C(=O)O` [compound 9, Bexotegrast] was tested, and the IC50 [13] was > 100000 nM.
In the case of `O=C(O)Cc1ccccc1Nc1c(Cl)cccc1Cl` [compound 9, Diclofenac sodium salt], the IC50 [8] is reported as > 100000 nM.
In the case of `CCN(CC)C(=O)Oc1c(I)cc(Cl)c2cccnc12` [compound 10, 5-chloro-7-iodo-8-quinolinyl diethylcarbamate], the IC50 [9] is reported as > 100000 nM.
For `CC(c1ccccc1)N1COc2c(cc(Cl)c3cccnc23)C1` (centres unmarked) [compound 10, 6-chloro-3-(1-phenylethyl)-3,4-dihydro-2H-[1,3]oxazino[5,6-h]quinoline], the IC50 [1] was 890 nM and the IC50 [2] was 740 nM.
For `N[C@@H](Cc1ccc(O)cc1)C(=O)O` [compound 10, L-Tyrosine], the IC50 [8] was > 100000 nM.
In the case of `CN(C)C(=O)Oc1c(I)cc(Cl)c2cccnc12` [compound 11, 5-chloro-7-iodo-8-quinolinyl dimethylcarbamate], the IC50 [9] is reported as > 100000 nM.
`Clc1cc2c(c3ncccc13)OCN(CCc1ccccc1)C2` [compound 11, 6-chloro-3-phenethyl-3,4-dihydro-2H-[1,3]oxazino[5,6-h]quinoline] gave an IC50 [1] of 1150 nM and an IC50 [2] of 1070 nM.
`Clc1cc2c(c3ncccc13)OCN(CCC1=CCCCC1)C2` [compound 12, 6-chloro-3-(2-(cyclohex-1-en-1-yl)ethyl)-3,4-dihydro-2H-[1,3]oxazino[5,6-h]quinoline] was tested, and the IC50 [1] was 660 nM and the IC50 [2] was 590 nM.
`Nc1nc2ncc(CNc3ccc(C(=O)N[C@@H](CCC(=O)O)C(=O)O)cc3)nc2c(=O)[nH]1` [compound 12, Folic acid] was tested, and the IC50 [8] was > 100000 nM.
`Cc1ccc(N(C)C(=O)Oc2c(Br)cc(Br)c3ccc(C)nc23)cc1` [compound 13, 5,7-dibromo-2-methylquinolin-8-yl methyl(4-methylphenyl)carbamate] was tested, and the IC50 [9] was > 100000 nM.
In the case of `O=C(Oc1c(Cl)cc(Cl)c2cccnc12)N1CCOCC1` [compound 14, 5,7-dichloro-8-quinolinyl 4-morpholinecarboxylate], the IC50 [9] is reported as > 100000 nM.
For `O=C(Oc1c(Br)cc(Cl)c2cccnc12)N1CCOCC1` [compound 15, 7-bromo-5-chloro-8-quinolinyl 4-morpholinecarboxylate], the IC50 [9] was > 100000 nM.
For `Cc1cccc(C(=O)Oc2ccc(Cl)c3cccnc23)c1` [compound 18, 5-chloro-8-quinolinyl 3-methylbenzoate], the IC50 [16] was > 100000 nM.
